What was measured:
293T = test: Nucleoside uptake assay (uptake) using 3H-Thymidine, 293T; assay type: cell-based; conditions: 293T cells
Procedure: Nucleoside Uptake Assay (uptake). Nuceloside uptake assays were performed with using 3H-Thymidine as described in Guo et al. (2018) Nat. Chem. 11:254-63. Specific cell lines are indicated in each assay and cultured in complete growth media. Activity is scored according to the IC50 values relative to DMSO control. “Low” indicates an IC50 greater than 600 nM, “Medium” indicates an IC50 between 300 nM and 600 nM “High” indicates an IC50 less than 300 nM. “Rel.Uptake” refers to uptake activity characterization relative to a single concentration assay. “Low” indicates a response greater than 0.6 times the activity relative to DMSO, “Medium” indicates a response between 0.6 and 0.3 times the activity relative to DMSO, “High” indicates a response less than 0.3 times the activity relative to DMSO.

[1] = tested on: nucleoside uptake (3H-Thymidine); test: Rel.Uptake: nucleoside uptake, single concentration assay, cell line as indicated in each table; assay type: cell-based; conditions: response relative to DMSO
Summary of the method: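 3H-thymidine uptake measured in the indicated cell lines (e.g. 293T) grown in complete media. IC50 scored relative to DMSO control as Low >600 nM, Medium 300-600 nM, High <300 nM; Rel.Uptake single-concentration response vs DMSO scored Low >0.6, Medium 0.3-0.6, High <0.3.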

[2] = IC50 class relative to DMSO control

Question: For COc1ccc(CC[C@H]2OC(=O)[C@@H]3CCCCN3C(=O)C(=O)C(C)(C)COC(=O)C=CCCN(C)C(=O)[C@H](CC(C)C)N(C)C(=O)[C@H]3CCCN3C(=O)[C@H](Cc3ccc(C(=O)Nc4cccnc4)cc3)NC(=O)[C@H](c3ccccc3)NC(=O)CCC(=O)Nc3cccc2c3)cc1OC [Compound 1562], which “Uptake, 293T” value (293T; Table 15) is on record?
Answer: low

Question: And the “Rel. Uptake, 293T” value ([1]; 293T, nucleoside uptake)?
Answer: low

Question: For COc1ccc(CC[C@H]2OC(=O)[C@@H]3CCCCN3C(=O)C(=O)C(C)(C)CNC(=O)C=CCCN(C)C(=O)[C@H](CC(C)C)N(C)C(=O)[C@H]3CCCN3C(=O)[C@H](Cc3ccccc3)N(C)C(=O)C(c3ccccc3)NC(=O)CCC(=O)Nc3cccc2c3)cc1OC (stereo partly drawn) [Compound 1555], which “Uptake, 293T” value (293T; [2]) is on record?
Answer: high

Question: And the “Rel. Uptake, 293T” value ([1]; 293T, nucleoside uptake)?
Answer: high

Question: How did the IC50 (293T; Table 14) turn out when COc1ccc(CC[C@H]2OC(=O)[C@@H]3CCCCN3C(=O)C(=O)C(C)(C)COC(=O)C=CCCN(C)C(=O)[C@H](CC(C)C)N(C)C(=O)[C@H]3CCCN3C(=O)[C@H](Cc3ccc(CNC(=O)CN(C)C)cc3)NC(=O)[C@H](c3ccccc3)NC(=O)CCC(=O)Nc3cccc2c3)cc1OC [Compound 1587] was run?
Answer: > 0.6 µM

Question: What about the “Rel. Uptake, 293T” value ([1]; 293T, nucleoside uptake) of the same compound?
Answer: Low (“Low” indicates a response greater than 0.6 times the activity relative to DMSO)

Question: For COc1ccc(CC[C@H]2OC(=O)[C@@H]3CCCCN3C(=O)C(=O)C(C)(C)COC(=O)C=CCCN(C)C(=O)[C@H](CC(C)C)N(C)C(=O)[C@H]3CCCN3C(=O)[C@H](Cc3ccc(O)cc3)NC(=O)C(c3ccccc3)NC(=O)CCC(=O)Nc3cccc2c3)cc1OC (stereo partly drawn) [Compound 1522], which “Uptake, 293T” value (293T; [2]) is on record?
Answer: high

Question: What about the “Rel. Uptake, 293T” value ([1]; 293T, nucleoside uptake) of the same compound?
Answer: high

Question: COc1ccc(CC[C@H]2OC(=O)[C@@H]3CCCCN3C(=O)C(=O)C(C)(C)COC(=O)C=CCCN(C)C(=O)[C@H](CC(C)C)N(C)C(=O)[C@H]3CCCN3C(=O)[C@H](Cc3cccc(NC(C)=O)c3)NC(=O)[C@H](c3ccccc3)NC(=O)CCC(=O)Nc3cccc2c3)cc1OC [Compound 1588] was tested. Which IC50 (293T; Table 14) did it give?
Answer: < 0.3 µM

Question: And the “Rel. Uptake, 293T” value ([1]; 293T, nucleoside uptake)?
Answer: High (“High” indicates a response less than 0.3 times the activity relative to DMSO)

Question: What does the source list for COc1ccc(CC[C@H]2OC(=O)[C@@H]3CCCCN3C(=O)C(=O)C(C)(C)COC(=O)C=CCCN(C)C(=O)[C@H](CC(C)C)N(C)C(=O)[C@H]3CCCN3C(=O)[C@H]3C[C@@H](NC(=O)OC(C)(C)C)CN3C(=O)C(c3ccccc3)NC(=O)CCC(=O)Nc3cccc2c3)cc1OC (stereo partly drawn) [Compound 1087]?
Answer: Uptake, 293T (293T; [2]): low; Rel. Uptake, 293T ([1]; 293T cells): low

Question: COc1ccc(CC[C@H]2OC(=O)[C@@H]3CCCCN3C(=O)C(=O)C(C)(C)COC(=O)C=CCCN(C)C(=O)[C@H](CC(C)C)N(C)C(=O)[C@H]3CCCN3C(=O)[C@H](Cc3ccc(CNC(=O)Cc4ccccc4)cc3)NC(=O)[C@H](c3ccccc3)NC(=O)CCC(=O)Nc3cccc2c3)cc1OC [Compound 1586] was tested. Which “Uptake, 293T” value (293T; Table 14) did it give?
Answer: Med

Question: What about the “Rel. Uptake, 293T” value ([1]; 293T, nucleoside uptake) of the same compound?
Answer: Med

Question: What does the source list for COc1ccc(CC[C@H]2OC(=O)[C@@H]3CCCCN3C(=O)C(=O)C(C)(C)COC(=O)C=CCCN(C)C(=O)[C@H](CC(C)C)N(C)C(=O)[C@H]3CCCN3C(=O)[C@H](Cc3ccc(OCc4ccccc4)cc3)NC(=O)C(c3ccccc3)NC(=O)CCC(=O)Nc3cccc2c3)cc1OC (stereo partly drawn) [Compound 1082]?
Answer: Uptake, 293T (293T; [2]): low; Rel. Uptake, 293T ([1]; 293T): low

Question: Which “Uptake, 293T” value (293T; Table 15) does the source give for COc1ccc(CC[C@H]2OC(=O)[C@@H]3CCCCN3C(=O)C(=O)C(C)(C)COC(=O)C=CCCN(C)C(=O)[C@H](CC(C)C)N(C)C(=O)[C@H]3CCCN3C(=O)[C@H](Cc3ccc(C(=O)NCCO)cc3)NC(=O)[C@H](c3ccccc3)NC(=O)CCC(=O)Nc3cccc2c3)cc1OC [Compound 1558] here?
Answer: high

Question: And the “Rel. Uptake, 293T” value ([1]; 293T, nucleoside uptake)?
Answer: high

Question: Which results are given for COc1ccc(CC[C@H]2OC(=O)[C@@H]3CCCCN3C(=O)C(=O)C(C)(C)COC(=O)C=CCCN(C)C(=O)[C@H](CC(C)C)N(C)C(=O)[C@H]3CCCN3C(=O)[C@H](Cc3ccc(C(=O)Nc4ccccc4)cc3)NC(=O)[C@H](c3ccccc3)NC(=O)CCC(=O)Nc3cccc2c3)cc1OC [Compound 1559]?
Answer: Uptake, 293T (293T; Table 15): medium; Rel. Uptake, 293T ([1]; 293T, nucleoside uptake): medium

Question: Which results are given for COc1ccc(CC[C@H]2OC(=O)[C@@H]3CCCCN3C(=O)C(=O)C(C)(C)COC(=O)C=CCCN(C)C(=O)[C@H](CC(C)C)N(C)C(=O)[C@H]3CCCN3C(=O)[C@H](CC(=O)OC(C)(C)C)N(C)C(=O)C(c3ccccc3)NC(=O)CCC(=O)Nc3cccc2c3)cc1OC (stereo partly drawn) [Compound 1066]?
Answer: Uptake, 293T (293T; [2]): high; Rel. Uptake, 293T ([1]; 293T): high

Question: How did the IC50 (293T; Table 14) turn out when COc1ccc(CC[C@H]2OC(=O)[C@@H]3CCCCN3C(=O)C(=O)C(C)(C)COC(=O)C=CCCN(C)C(=O)[C@H](CC(C)C)N(C)C(=O)[C@H]3CCCN3C(=O)[C@H](Cc3ccc(NC(=O)Cc4cccnc4)cc3)NC(=O)[C@H](c3ccccc3)NC(=O)CCC(=O)Nc3cccc2c3)cc1OC [Compound 1589] was run?
Answer: > 0.6 µM

Question: And the “Rel. Uptake, 293T” value ([1]; 293T, nucleoside uptake)?
Answer: Low (“Low” indicates a response greater than 0.6 times the activity relative to DMSO)
